Reference: patent US10993957B2 (NuCana plc, priority 2011, dated 2021)
Read-outs that look alike come from different tables or passages of the source.

Columns and labels:
[1] = system: L1210.Hyor; assay: Cytostatic assay, Mycoplasma hyorhinis-infected L1210 cells
Outline: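 Proliferation read by Coulter counting after 48 h exposure of compound-treated L1210 cells carrying M. hyorhinis infection (60,000 cells/well, DMEM with 10% FBS, 37 °C). Values also given as percent activity retained in infected cells.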

[2] = Stability in buffer at pH 1 by 31P NMR; assay type: physicochemical; details: 14 hours
Method: The stability of the prodrug CPF-373 towards hydrolysis at pH=1 was studied using in situ ^31P NMR (202 MHz). The ProTide CPF-373 (1) (2.6 mg) was dissolved in MeOD (0.1 mL) after which 0.5 mL buffer (pH=1) (prepared from equal parts of 0.2 M HCl and 0.2 M KCl) was added. Then the sample was transferred into an NMR tube, and a ^31P NMR experiment was performed at 37° C. recording the data every 12 minutes for 14 hours. Data were processed and analysed with the Bruker Topspin 2.1 program.
A chemical hydrolysis was evaluated under experimental conditions at pH 1 and pH 8 and monitored by ^31P NMR. During the assay (14 h) under acidic conditions (pH 1) only two peaks representing the two diastereoisomers were recorded.

[3] = system: L1210/0; assay: Cytostatic assay, L1210/0 cells; assay type: cell-based, murine; details: for IC50: read-out: IC50 L1210/0
Source text: (§1) The cell lines employed were L1210/0 (a leukemia cell line), FM3A/0 (a breast cancer cell line), Cem/0 (an acute lymphoblastic leukemia cell line) and HeLa (a cervical cell line).

[4] = system: L1210/TK^−; assay: Cytostatic assay, thymidine kinase-deficient L1210/TK^− cells; assay type: cell-based, murine; details: for IC50: Table 6, read-out: IC50 L1210/TK^−; for CC50: L1210, Table 1, read-out: CC50 L1210/TK^−
[5] = system: Cem/hEnt-1; assay: Cytostatic assay, CEM cells containing the hEnt1 transporter; assay type: cell-based
Source text: (§2) Data are mean (±SD) of at least two to four independent experiments. Table 8 identifies the phosphoramidate motif of compounds embodying the present invention, as discussed above with respect to Table 6, but with “Naph” standing for 1-naphthyl.

[6] = system: HeLa; assay: Cytostatic assay, HeLa cells; assay type: cell-based; details: for IC50: Table 6, read-out: IC50 HeLa; for CC50: Table 1, read-out: CC50 HeLa
Source text: as §1

[7] = system: Cem/TK^−; assay: Cytostatic assay, thymidine kinase-deficient CEM/TK^− cells; assay type: cell-based, human; details: for IC50: Table 6, read-out: IC50 Cem/TK^−; for CC50: Table 1, read-out: CC50 Cem/TK^−
[8] = system: HeLa/TK^−; assay: Cytostatic assay, HeLa/TK^− cells; assay type: cell-based; details: for IC50: Table 6, read-out: IC50 HeLa/TK^−; for CC50: Table 1, read-out: CC50 HeLa/TK^−
Source text: as §1

[9] = system: Cem/hEnt-0; assay: Cytostatic assay, CEM cells lacking the hEnt1 transporter; assay type: cell-based; details: Table 8; read-out: IC50 Cem/hEnt-0
Source text: as §2

[10] = system: Cem/0; assay: Cytostatic assay, CEM/0 cells; assay type: cell-based, human; details: for IC50: Table 6, read-out: IC50 Cem/0; for CC50: Table 1, read-out: CC50 Cem/0
Source text: as §1

[11] = target: Thymidine Phosphorylase purified from Escherichia coli (Escherichia coli, UniProt P07650); assay: Phosphorylase assay by in situ 19F NMR; details: potassium phosphate buffer 300 nM, pH 7.4; after 5 min, 14 h and 72 h
Thymidine Phosphorylase purified from Escherichia coli, sequence (P07650 whole entry): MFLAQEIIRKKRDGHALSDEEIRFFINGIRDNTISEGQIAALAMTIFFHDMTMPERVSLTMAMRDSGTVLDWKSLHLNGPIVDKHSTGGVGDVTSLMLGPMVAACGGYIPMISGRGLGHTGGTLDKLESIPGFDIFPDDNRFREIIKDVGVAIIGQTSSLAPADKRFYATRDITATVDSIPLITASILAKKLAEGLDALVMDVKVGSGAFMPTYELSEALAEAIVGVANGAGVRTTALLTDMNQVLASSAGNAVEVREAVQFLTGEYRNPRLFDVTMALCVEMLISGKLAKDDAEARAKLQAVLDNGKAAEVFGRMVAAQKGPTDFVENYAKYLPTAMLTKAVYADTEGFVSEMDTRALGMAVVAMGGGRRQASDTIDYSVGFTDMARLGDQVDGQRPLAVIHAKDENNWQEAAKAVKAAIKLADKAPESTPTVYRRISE
Method: Two potassium phosphate buffers at pH=7.4, 200 nM solution and 300 nM solution respectively, were used as phosphate donor. Units of enzyme were defined as the amount of enzyme required to hydrolyse about 0.25 mg of inosine per min used as standard. Assays were conducted for 30 minutes.

[12] = system: FM3A/TK^−; assay: Cytostatic assay, FM3A/TK^− cells; assay type: cell-based; details: Mus musculus, read-out: CC50 FM3A/TK^−
[13] = system: FM3A/0; assay: Cytostatic assay, FM3A/0 cells; assay type: cell-based; details: Mus musculus
Method: The samples were assayed for biological activity versus a range of tumour cell lines with data recorded in Table 1 below. […] The cell lines employed were L1210/0 (a leukemia cell line), FM3A/0 (a breast cancer cell line), Cem/0 (an acute lymphoblastic leukemia cell line) and HeLa (a cervical cell line).

[14] = target: human UP (Homo sapiens, UniProt Q16831); assay: Phosphorolysis by human UP, HPLC; details: 100 μM compound, room temperature, 0-40 min
human UP, sequence (Q16831 whole entry): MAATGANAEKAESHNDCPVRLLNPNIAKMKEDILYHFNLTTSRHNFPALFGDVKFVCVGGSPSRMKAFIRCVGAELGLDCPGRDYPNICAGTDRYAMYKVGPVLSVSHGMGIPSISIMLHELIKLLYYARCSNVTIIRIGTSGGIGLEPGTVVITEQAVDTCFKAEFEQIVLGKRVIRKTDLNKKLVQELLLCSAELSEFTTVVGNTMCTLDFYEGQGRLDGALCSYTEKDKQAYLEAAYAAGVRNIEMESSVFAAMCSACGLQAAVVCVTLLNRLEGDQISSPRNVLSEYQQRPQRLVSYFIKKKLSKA
Method: Reaction mixtures containing 100 μM test compound and recombinant TP or UP (human TP: 8.6 ng/μL; E. coli TP: 3.0 ng/μL; human UP: 4 ng/mL) in a total volume of 500 μL reaction buffer (10 mM TrisHCl; 300 μM NaCl; 1 mM EDTA; 2 mM KH2PO4/K2HPO4) were incubated at room temperature. At different time points (i.e. 0, 20, 40 min) 100 μL aliquots of the reaction mixtures were withdrawn and heated at 95° C. for 3 min to inactivate the enzyme. […] The separation of Urd from uracil was performed by a linear gradient from 100% separation buffer (see above) to 60% separation buffer+40% acetonitrile (3 min 100% separation buffer; 6 min linear gradient of 100% separation buffer to 60% separation buffer+40% acetonitrile; 6 min 60% separation buffer+40% acetonitrile, followed by equilibration at 100% separation buffer).

[15] = Stability in human serum by in situ 31P NMR; assay type: in vitro ADME; details: 37° C., after 13 h and 30 min
Method: The stability of the prodrug CPF-373 in the presence of human serum was studied using in situ ^31P NMR (202 MHz). The ProTide CPF-373 (1) (5.0 mg) was dissolved in DMSO (0.05 mL) and D2O (0.15 mL). Then the sample was transferred into an NMR tube, which was inserted in the NMR chamber at 37° C. (with enough solvent to obtain a control NMR reading of the blank). Then 0.3 ml human serum was quickly added to the sample in the NMR tube. NMR experiments were programmed to record data every 15 minutes for 12 hours and 30 minutes. Because of excess noise and poor shimming profiles (most likely due to the biological media and concentration), individual spectra were further processed. After normal Fourier transform processing, each spectrum was deconvoluted (Lorentz-Gauss deconvolution) to reveal solely the frequency and area of spectral peaks without the baseline. Data recorded were processed and analysed with the Bruker Topspin 2.1 program.
Chemical stability studies on the prodrug CPF-373 (1) have been performed by exposing the compound to human serum and to aqueous buffers (pH 1.0 and 8.0) using in situ ^31P NMR. […]
The stability of compound CPF 386 in the presence of human serum was investigated using in situ ^31P NMR. A control ^31P NMR data of compound CPF 386 in DMSO and D2O were recorded. […] The ^31P NMR data were recorded every 15 minutes over 14 h. […]

[16] = Mus musculus, L1210, read-out: IC50 L1210.Hyor
[17] = Mus musculus, L1210/0, Table 1, read-out: CC50 L1210/0

SMILES	IC50(L1210.Hyor)/IC50(L1210/0) ([1]; Table 7)	IC50 [1, 16] [nM]	CC50 [3, 17] [nM]	IC50 ([3]; Mus musculus, L1210/0, Table 6) [nM]	IC50 ([3]; Mus musculus, L1210/0, Table 7) [nM]	CC50 ([4]; Mus musculus) [nM]	IC50 ([4]; Mus musculus, L1210) [nM]	CC50 ([6]; Homo sapiens, HeLa) [nM]	IC50 ([6]; Homo sapiens, HeLa) [nM]	CC50 ([7]; Homo sapiens, CEM-TK(-)) [nM]	IC50 ([7]; Homo sapiens, CEM-TK(-)) [nM]	CC50 ([13]; FM3A/0, read-out: CC50 FM3A/0) [nM]	CC50 ([8]; Homo sapiens, HeLa) [nM]	IC50 ([8]; Homo sapiens, HeLa) [nM]	CC50 ([10]; Homo sapiens, CCRF-CEM) [nM]	IC50 ([10]; Homo sapiens, CCRF-CEM) [nM]	also measured
C[C@H](NP(=O)(OC[C@H]1O[C@@H](n2cc(F)c(=O)[nH]c2=O)CC1O)Oc1ccccc1)C(=O)OCc1ccccc1 (stereo partly drawn) [CPF 381, 5-Fluoro-2′-deoxyuridine-5′-O-[phenyl(benzoxy-L-alaninyl)]phosphate]	5.8																% Retention ([1]; CC50 L1210 × 100 ÷ CC50 L1210/Hyor): 18%; CC50 ([1]; read-out: CC50 L1210/Hyor, Table 2, mycoplasma positive cells): 150 nM; IC50 ([1]; read-out: IC50 L1210.Hyor, Table 7): 150 ± 6 nM; Stability towards hydrolysis at pH 1 [2]: highly stable; CC50 ([3]; Table 2, mycoplasma negative cells, read-out: CC50 L1210): 26 nM; IC50 ([3]; Table 6): 28 ± 7 nM; IC50 ([3]; Table 7): 26 ± 8 nM; IC50 [4]: 13000 ± 8000 nM; IC50 ([5]; Table 8, read-out: IC50 Cem/hEnt-1): 130 ± 50 nM; IC50 ([5]; in the presence of NBMPR, read-out: IC50 Cem/hEnt-1 + NBMPR): 720 nM; IC50 ([5]; in the presence of dipyridamole, read-out: IC50 Cem/hEnt-1 + dipyridamole): 660 nM; IC50 [6]: 130 ± 10 nM; IC50 [7]: 22000 ± 7000 nM; IC50 [8]: 19000 ± 2000 nM; IC50 [9]: 1400 ± 650 nM; IC50 [10]: 180 ± 30 nM; Phosphorolysis by thymidine phosphorylase (19F NMR) [11]: did not show any evidence of phosphorolysis
CC(C)OC(=O)[C@H](C)NP(=O)(OC[C@H]1O[C@@H](n2cc(F)c(=O)[nH]c2=O)CC1O)Oc1ccccc1 (stereo partly drawn) [CPF 384, 5-Fluoro-2′deoxyuridine-5′-O-[phenyl(isopropoxy-L-alaninyl)] phosphate]	14	700 ± 100	76 ± 22	76 ± 22	50 ± 13	1100 ± 100	1100 ± 100	710 ± 150	710 ± 150	30000 ± 10000	30000 ± 10000	360 ± 250	25000 ± 11000	25000 ± 11000	1000 ± 100	1000 ± 100	CC50 [12]: 13000 ± 1000 nM
O=c1[nH]cc(F)c(=O)[nH]1 [5-FU, 5-Fluorouracil, reference compound]			330 ± 170	330 ± 170		320 ± 310	320 ± 310	540 ± 120	540 ± 120		12000 ± 1000			230 ± 10	18000 ± 5000	18000 ± 5000	CC50 ([13]; FM3A/0, Table 1, read-out: CC50 FM3A/0): 180 ± 20 nM
O=c1ccn([C@@H]2O[C@H](CO)[C@@H](O)[C@H]2O)c(=O)[nH]1 [uridine, reference compound]																	Phosphorolysis by human UP [14]: converted to uracil
CCOC(=O)[C@H](C)NP(=O)(OC[C@H]1O[C@@H](n2cc(F)c(=O)[nH]c2=O)CC1O)Oc1ccccc1 (stereo partly drawn) [CPF 383]	5	540 ± 120	130 ± 40	130 ± 40	110 ± 2.1	940 ± 180	940 ± 180	480 ± 190	480 ± 190	14000	14000	640 ± 570	9800 ± 1400	9800 ± 1400	920 ± 110	920 ± 110	CC50 [12]: 4100 ± 2000 nM
CCOC(=O)[C@H](C)NP(=O)(OC[C@H]1O[C@@H](n2cc(F)c(=O)[nH]c2=O)CC1O)Oc1cccc2ccccc12 (stereo partly drawn) [CPF 386, 5-Fluoro-2′deoxyuridine-5′-O-[1-naphthyl (ethoxy-L-alaninyl)] phosphate]	3.4	95 ± 2.8	31 ± 5	31 ± 5	28 ± 2.1	360 ± 10	360 ± 10	220 ± 40	220 ± 40	1600 ± 200	1600 ± 200		2800	2800	250 ± 40	250 ± 40	parent compound in reaction mixture with human serum [15]: 96%
C[C@H](NP(=O)(OC[C@H]1O[C@@H](n2cc(F)c(=O)[nH]c2=O)CC1O)Oc1cccc2ccccc12)C(=O)OC1CCCCC1 (stereo partly drawn) [CPF 509, 5-Fluoro-2′deoxyuridine-5′-O-[1-naphthyl (cyclohexoxy-L-alaninyl)]phosphate]	1.4	49 ± 4	43 ± 23	43 ± 23	36 ± 17	150	150	90 ± 14	90 ± 14		1000 ± 100	310 ± 60			57 ± 55	57 ± 55	
